For 1 cell line, relative viability results are on record in the supplement of paper PMC10307832.

What all share (assay): relative viability (nuclei count vs DMSO), 5 days (fraction); higher = more cells survive
Compound in the experiment “Venetoclax + Olaparib”: CC1(C)CCC(CN2CCN(c3ccc(C(=O)NS(=O)(=O)c4ccc(NCC5CCOCC5)c([N+](=O)[O-])c4)c(Oc4cnc5[nH]ccc5c4)c3)CC2)=C(c2ccc(Cl)cc2)C1 [Venetoclax] + O=C(c1cc(Cc2n[nH]c(=O)c3ccccc23)ccc1F)N1CCN(C(=O)C2CC2)CC1 [Olaparib] (partner 8 µM)
The method in brief: (§1)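 Cells from lung cancer lines were seeded into 1536-well plates and, one day later, dosed by pin tool. Treatments were either a single drug or a fixed dose of an anchor drug with five library-drug doses (not always all listed) in √10 steps. After 5 days, nuclei were stained in a one-step fixation (final 0.05% Triton X-100, 1% formaldehyde, 1 ug/ml Hoechst) and counted on 4× images, and relative viability is the treated-to-vehicle nuclei ratio, as the median of duplicate plates.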

Compound in the experiment “Venetoclax + Navitoclax”: CC1(C)CCC(CN2CCN(c3ccc(C(=O)NS(=O)(=O)c4ccc(NCC5CCOCC5)c([N+](=O)[O-])c4)c(Oc4cnc5[nH]ccc5c4)c3)CC2)=C(c2ccc(Cl)cc2)C1 [Venetoclax] + CC1(C)CCC(c2ccc(Cl)cc2)=C(CN2CCN(c3ccc(C(=O)NS(=O)(=O)c4ccc(N[C@H](CCN5CCOCC5)CSc5ccccc5)c(S(=O)(=O)C(F)(F)F)c4)cc3)CC2)C1 [Navitoclax] (partner 0.5 µM)
In outline:
as §1

Compound in the experiment “Selumetinib + Olaparib”: Cn1cnc2c(F)c(Nc3ccc(Br)cc3Cl)c(C(=O)NOCCO)cc21 [Selumetinib] + O=C(c1cc(Cc2n[nH]c(=O)c3ccccc23)ccc1F)N1CCN(C(=O)C2CC2)CC1 [Olaparib] (partner 8 µM)
In outline:
as §1

Compound in the experiment “Selumetinib + Crizotinib”: Cn1cnc2c(F)c(Nc3ccc(Br)cc3Cl)c(C(=O)NOCCO)cc21 [Selumetinib] + C[C@@H](Oc1cc(-c2cnn(C3CCNCC3)c2)cnc1N)c1c(Cl)ccc(F)c1Cl [Crizotinib] (partner 1 µM)
The method in brief: as §1

UMC-11: the relative viability was found to be 0.401 with Venetoclax + Olaparib (first compound 0.01 µM); 0.322 with Venetoclax + Olaparib (first compound 0.03162 µM); 0.303 with Venetoclax + Olaparib (first compound 0.1 µM); 0.379 with Venetoclax + Olaparib (first compound 0.3162 µM); 0.886 with Venetoclax + Olaparib (first compound 1 µM); 0.307 with Venetoclax + Navitoclax (first compound 0.01 µM). Also, the relative viability in the experiment with Venetoclax + Navitoclax (first compound 0.03162 µM) is 0.31; with Venetoclax + Navitoclax (first compound 0.1 µM), 0.255; with Venetoclax + Navitoclax (first compound 0.3162 µM), 0.284; with Venetoclax + Navitoclax (first compound 1 µM), 0.249; in the experiment with Selumetinib + Olaparib (first compound 0.02 µM) it was 0.32; in the experiment with Selumetinib + Olaparib (first compound 0.06325 µM) it was 0.33. Moreover, the relative viability with Selumetinib + Olaparib (first compound 0.2 µM) was found to be 0.384; with Selumetinib + Olaparib (first compound 0.6325 µM), 0.914; with Selumetinib + Crizotinib (first compound 0.02 µM), 0.686; with Selumetinib + Crizotinib (first compound 0.06325 µM), 0.594; with Selumetinib + Crizotinib (first compound 0.2 µM) it was 0.515; with Selumetinib + Crizotinib (first compound 0.6325 µM), 0.645.
